From PubChem BioAssay AID1918994 (Molecular Pharmacology Branch, DTP, NCI, 2023)
Values belong to the molecule of their own block, whether it stands above or below them.

Tested on: 292921-168-R-J2-PDC complex spheroid growth
Assay: Anticancer human tumor 292921-168-R-J2-PDC patient-derived pancreatic carcinoma cell line growth inhibition [AhR]
Conditions: for IC50: curve of first compound; for viability, T/C: stronger effect = lower value
Summary of the method: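 Agents were dosed in half-log steps down from roughly clinical Cmax, or from 10 microM where Cmax was unknown, alone and with AhR antagonists. Read-out: percent test/control growth of tumor spheroids containing HUVEC and MSC stromal cells.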

[1] = second compound 0.1 µM, first compound 0.00949 µM
[2] = second compound 0.1 µM, first compound 0.03 µM
[3] = second compound 0.1 µM, first compound 0.0949 µM
[4] = second compound 0.1 µM, first compound 0.3 µM
[5] = second compound 0.316 µM, first compound 0.00949 µM
[6] = second compound 0.316 µM, first compound 0.03 µM
[7] = second compound 0.316 µM, first compound 0.0949 µM
[8] = second compound 0.316 µM, first compound 0.3 µM
[9] = second compound 1 µM, first compound 0.00949 µM
[10] = second compound 1 µM, first compound 0.03 µM
[11] = second compound 1 µM, first compound 0.0949 µM
[12] = second compound 1 µM, first compound 0.3 µM
[13] = second compound 3.16 µM, first compound 0.00949 µM
[14] = second compound 3.16 µM, first compound 0.03 µM
[15] = second compound 3.16 µM, first compound 0.0949 µM
[16] = second compound 3.16 µM, first compound 0.3 µM
[17] = second compound 10 µM, first compound 0.00949 µM
[18] = second compound 10 µM, first compound 0.03 µM
[19] = second compound 10 µM, first compound 0.0949 µM
[20] = second compound 10 µM, first compound 0.3 µM
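Further: spheroids exposed to compounds for seven days after three days of growth.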

IC50 (second compound 0.1 µM): > 300 nM | IC50 (second compound 0.316 µM): > 300 nM | IC50 (second compound 1 µM): > 300 nM | IC50 (second compound 3.16 µM): > 300 nM | IC50 (second compound 10 µM): 91.3 nM
SMILES: Nc1ncn(C2CC(O)C(CO)S2)c(=O)n1 (stereo not given) + Cc1cncc(-c2nc(NCCc3c[nH]c4ccccc34)c3ncn(C(C)C)c3n2)c1
viability, T/C (second compound 0.1 µM, first compound 0.000949 µM): 94.8% | viability, T/C (second compound 0.1 µM, first compound 0.003 µM): 92.2% | viability, T/C [1]: 91.3% | viability, T/C [2]: 92.6% | viability, T/C [3]: 87% | viability, T/C [4]: 89.9% | viability, T/C (second compound 0.316 µM, first compound 0.000949 µM): 91% | viability, T/C (second compound 0.316 µM, first compound 0.003 µM): 85.9% | viability, T/C [5]: 88.2% | viability, T/C [6]: 98.2% | viability, T/C [7]: 88.2% | viability, T/C [8]: 92.7% | viability, T/C (second compound 1 µM, first compound 0.000949 µM): 71.9% | viability, T/C (second compound 1 µM, first compound 0.003 µM): 74% | viability, T/C [9]: 69.7% | viability, T/C [10]: 75.1% | viability, T/C [11]: 82.4% | viability, T/C [12]: 82.9% | viability, T/C (second compound 3.16 µM, first compound 0.000949 µM): 52.2% | viability, T/C (second compound 3.16 µM, first compound 0.003 µM): 55.5% | viability, T/C [13]: 59.5% | viability, T/C [14]: 47.3% | viability, T/C [15]: 50% | viability, T/C [16]: 57.8% | viability, T/C (second compound 10 µM, first compound 0.000949 µM): 50.1% | viability, T/C (second compound 10 µM, first compound 0.003 µM): 48.8% | viability, T/C [17]: 54.6% | viability, T/C [18]: 50% | viability, T/C [19]: 50.2% | viability, T/C [20]: 48.4%

IC50 (second compound 0.1 µM): 179 nM | IC50 (second compound 0.316 µM): 165 nM | IC50 (second compound 1 µM): 194 nM | IC50 (second compound 3.16 µM): 108 nM | IC50 (second compound 10 µM): 107 nM
SMILES: O=C(C=Cn1cnc(-c2cc(C(F)(F)F)cc(C(F)(F)F)c2)n1)NNc1cnccn1 + Cc1cncc(-c2nc(NCCc3c[nH]c4ccccc34)c3ncn(C(C)C)c3n2)c1
viability, T/C [1]: 90.8% | viability, T/C [2]: 85.3% | viability, T/C [3]: 62.6% | viability, T/C [4]: 39.1% | viability, T/C (second compound 0.1 µM, first compound 0.949 µM): 23% | viability, T/C (second compound 0.1 µM, first compound 3 µM): 15.2% | viability, T/C [5]: 91.9% | viability, T/C [6]: 86.2% | viability, T/C [7]: 62.1% | viability, T/C [8]: 36.2% | viability, T/C (second compound 0.316 µM, first compound 0.949 µM): 21.2% | viability, T/C (second compound 0.316 µM, first compound 3 µM): 16.2% | viability, T/C [9]: 91% | viability, T/C [10]: 80.2% | viability, T/C [11]: 62.4% | viability, T/C [12]: 42.5% | viability, T/C (second compound 1 µM, first compound 0.949 µM): 24.6% | viability, T/C (second compound 1 µM, first compound 3 µM): 13.1% | viability, T/C [13]: 83.6% | viability, T/C [14]: 71% | viability, T/C [15]: 51.5% | viability, T/C [16]: 35.2% | viability, T/C (second compound 3.16 µM, first compound 0.949 µM): 21.9% | viability, T/C (second compound 3.16 µM, first compound 3 µM): 18.9% | viability, T/C [17]: 54.4% | viability, T/C [18]: 58.1% | viability, T/C [19]: 51.2% | viability, T/C [20]: 38.7% | viability, T/C (second compound 10 µM, first compound 0.949 µM): 35.5% | viability, T/C (second compound 10 µM, first compound 3 µM): 29.1%
